Publication PMC9501633, “Synthesis, Characterisation and Mechanism of Action of Anticancer 3-Fluoroazetidin-2-ones” (Pharmaceuticals, 2022)

Tests used:
HOP-92 = assay: NCI 60 cell line screen, NSCLung; format: cell-based, human
EKVX = assay: NCI 60 cell line screen, NSCLung; format: cell-based, human
NCI-H23 = assay: NCI 60 cell line screen, NSCLung; format: cell-based, human
DU-145 = assay: NCI 60 cell line screen, Prostate; format: cell-based, human
KM12 = assay: NCI 60 cell line screen, Colon; format: cell-based, human
OVCAR-4 = assay: NCI 60 cell line screen, Ovarian; format: cell-based, human
UACC-257 = assay: NCI 60 cell line screen, Melanoma; format: cell-based, human
HCT-15 = assay: NCI 60 cell line screen, Colon; format: cell-based, human
SK-MEL-2 = assay: NCI 60 cell line screen, Melanoma; format: cell-based, human
HS 578T = assay: NCI 60 cell line screen, Breast; format: cell-based, human
SK-MEL-5 = assay: NCI 60 cell line screen, Melanoma; format: cell-based, human
RPMI-8226 = assay: NCI 60 cell line screen, Leukaemia; format: cell-based, human
M14 = assay: NCI 60 cell line screen, Melanoma; format: cell-based, human; settings: for GI50: 5-dose, 48 h
leukaemia panel = assay: NCI 60 cell line one-dose screen, panel mean; format: cell-based; settings: Homo sapiens, one dose 10 μM, read-out: mean growth inhibition
Protocol: The antiproliferative effects of selected compounds 33, 37 and 43 were initially evaluated in the NCI 60 cell line screen at 10 μM concentration (see Supplementary Materials Table S3).
aData obtained from NCI in vitro human tumour cell screen 1 dose assay (10 µM). 33 (NCI

HL-60(TB) = assay: NCI 60 cell line screen, Leukaemia; format: cell-based, human
HCT-116 = assay: NCI 60 cell line screen, Colon; format: cell-based, human
U251 = assay: NCI 60 cell line screen, CNS; format: cell-based, human
SR = assay: NCI 60 cell line screen, Leukaemia; format: cell-based, human
NCI-H522 = assay: NCI 60 cell line screen, NSCLung; format: cell-based, human
OVCAR-3 = assay: NCI 60 cell line screen, Ovarian; format: cell-based, human
HT29 = assay: NCI 60 cell line screen, Colon; format: cell-based, human
NCI-H226 = assay: NCI 60 cell line screen, NSCLung; format: cell-based, human
SK-MEL-28 = assay: NCI 60 cell line screen, Melanoma; format: cell-based, human
TK-10 = assay: NCI 60 cell line screen, Renal; format: cell-based, human
SW-620 = assay: NCI 60 cell line screen, Colon; format: cell-based, human
ACHN = assay: NCI 60 cell line screen, Renal; format: cell-based, human; settings: one dose 10 µM
IGROV1 = assay: NCI 60 cell line screen, Ovarian; format: cell-based, human
SF-295 = assay: NCI 60 cell line screen, CNS; format: cell-based, human
MDA-MB-468 = assay: NCI 60 cell line screen, Breast; format: cell-based, human
MDA-MB-435 = assay: NCI 60 cell line screen, Melanoma; format: cell-based, human
MOLT-4 = assay: NCI 60 cell line screen, Leukaemia; format: cell-based, human
SK-OV-3 = assay: NCI 60 cell line screen, Ovarian; format: cell-based, human
HOP-62 = assay: NCI 60 cell line screen, NSCLung; format: cell-based, human
SF-268 = assay: NCI 60 cell line screen, CNS; format: cell-based, human
T-47D = assay: NCI 60 cell line screen, Breast; format: cell-based, human
A498 = assay: NCI 60 cell line screen, Renal; format: cell-based, human

Compound: COc1ccc(C2C(F)C(=O)N2c2cc(OC)c(OC)c(OC)c2)cc1F (stereo not drawn) [Compound 33, 3-Fluoro-4-(3-fluoro-4-methoxyphenyl)-1-(3,4,5-trimethoxyphenyl)azetidin-2-one]
- TGI (HOP-92; 5-dose, 48 h): 63900 nM
- GI50 (HOP-92; Homo sapiens, 5-dose, 48 h): 266 nM
- inhibition at 10 µM (HOP-92; Homo sapiens, one dose 10 µM): 67.7%
- Growth % (HOP-92; one dose 10 µM): 32.28%
- TGI (EKVX; 5-dose, 48 h): >100000 nM
- GI50 (EKVX; Homo sapiens, 5-dose, 48 h): 203 nM
- inhibition at 10 µM (EKVX; Homo sapiens, one dose 10 µM): 27.8%
- Growth % (EKVX; one dose 10 µM): 72.16%
- TGI (NCI-H23; 5-dose, 48 h): >100000 nM
- GI50 (NCI-H23; Homo sapiens, 5-dose, 48 h): 273 nM
- inhibition at 10 µM (NCI-H23; Homo sapiens, one dose 10 µM): 78.7%
- Growth % (NCI-H23; one dose 10 µM): 21.3%
- TGI (DU-145; 5-dose, 48 h): >100000 nM
- GI50 (DU-145; Homo sapiens, 5-dose, 48 h): 269 nM
- inhibition at 10 µM (DU-145; Homo sapiens, one dose 10 µM): 90.5%
- Growth % (DU-145; one dose 10 µM): 9.46%
- TGI (KM12; 5-dose, 48 h): >100000 nM
- GI50 (KM12; Homo sapiens, 5-dose, 48 h): 59.6 nM
- inhibition at 10 µM (KM12; Homo sapiens, one dose 10 µM): 89.3%
- Growth % (KM12; one dose 10 µM): 10.73%
- TGI (OVCAR-4; 5-dose, 48 h): >100000 nM
- GI50 (OVCAR-4; Homo sapiens, 5-dose, 48 h): 966 nM
- inhibition at 10 µM (OVCAR-4; Homo sapiens, one dose 10 µM): 45.1%
- Growth % (OVCAR-4; one dose 10 µM): 54.92%
- TGI (UACC-257; 5-dose, 48 h): >100000 nM
- GI50 (UACC-257; Homo sapiens, 5-dose, 48 h): > 100000 nM
- inhibition at 10 µM (UACC-257; Homo sapiens, one dose 10 µM): 61.3%
- Growth % (UACC-257; one dose 10 µM): 38.74%
- TGI (HCT-15; 5-dose, 48 h): >100000 nM
- GI50 (HCT-15; Homo sapiens, 5-dose, 48 h): 66.4 nM
- inhibition at 10 µM (HCT-15; Homo sapiens, one dose 10 µM): 86.4%
- Growth % (HCT-15; one dose 10 µM): 13.63%
- TGI (SK-MEL-2; 5-dose, 48 h): >100000 nM
- GI50 (SK-MEL-2; Homo sapiens, 5-dose, 48 h): 303 nM
- inhibition at 10 µM (SK-MEL-2; Homo sapiens, one dose 10 µM): 41.2%
- Growth % (SK-MEL-2; one dose 10 µM): 58.83%
- TGI (HS 578T; 5-dose, 48 h): >100000 nM
- GI50 (HS 578T; Homo sapiens, 5-dose, 48 h): 295 nM
- inhibition at 10 µM (HS 578T; Homo sapiens, one dose 10 µM): 74.5%
- Growth % (HS 578T; one dose 10 µM): 25.54%
- TGI (SK-MEL-5; 5-dose, 48 h): 350 nM
- GI50 (SK-MEL-5; Homo sapiens, 5-dose, 48 h): 45.6 nM
- CC50 (SK-MEL-5; Homo sapiens, 5-dose, 48 h, read-out: LC50 (the source's name)): 91300 nM
- inhibition at 10 µM (SK-MEL-5; Homo sapiens, one dose 10 µM): 131%
- Growth % (SK-MEL-5; one dose 10 µM): -31.46%
- TGI (RPMI-8226; 5-dose, 48 h): 37300 nM
- GI50 (RPMI-8226; Homo sapiens, 5-dose, 48 h): 55 nM
- inhibition at 10 µM (RPMI-8226; Homo sapiens, one dose 10 µM): 84.7%
- Growth % (RPMI-8226; one dose 10 µM): 15.32%
- GI50 (M14): 25.4 nM
- GI50 (M14; Homo sapiens, M14, 48 h): 25 nM
- inhibition at 10 µM (M14; Homo sapiens, one dose 10 µM): 98.1%
- Growth % (M14; one dose 10 µM): 1.91%
- inhibition at 10 µM (leukaemia panel): 90.6%
- TGI (HL-60(TB); 5-dose, 48 h): 399 nM
- GI50 (HL-60(TB); Homo sapiens, 5-dose, 48 h): 80.5 nM
- inhibition at 10 µM (HL-60(TB); Homo sapiens, one dose 10 µM): 115%
- Growth % (HL-60(TB); one dose 10 µM): -14.69%
- TGI (HCT-116; 5-dose, 48 h): >100000 nM
- GI50 (HCT-116; Homo sapiens, 5-dose, 48 h): 32.5 nM
- inhibition at 10 µM (HCT-116; Homo sapiens, one dose 10 µM): 94.4%
- Growth % (HCT-116; one dose 10 µM): 5.59%
- TGI (U251; 5-dose, 48 h): >100000 nM
- GI50 (U251; Homo sapiens, U-251, 5-dose, 48 h): 23.6 nM
- inhibition at 10 µM (U251; Homo sapiens, U-251, one dose 10 µM): 88.1%
- Growth % (U251; one dose 10 µM): 11.86%
- TGI (SR; 5-dose, 48 h): >100000 nM
- GI50 (SR; Homo sapiens, 5-dose, 48 h): 40.8 nM
- inhibition at 10 µM (SR; Homo sapiens, one dose 10 µM): 86.7%
- Growth % (SR; one dose 10 µM): 13.28%
- GI50 (NCI-H522; 5-dose, 48 h): 38.3 nM
- TGI (NCI-H522; 5-dose, 48 h): >100000 nM
- GI50 (NCI-H522; Homo sapiens, NCI-H522, 48 h, 5-dose, 48 h): 38 nM
- inhibition at 10 µM (NCI-H522; Homo sapiens, one dose 10 µM): 108%
- Growth % (NCI-H522; one dose 10 µM): -8.46%
- TGI (OVCAR-3; 5-dose, 48 h): 492 nM
- GI50 (OVCAR-3; Homo sapiens, 5-dose, 48 h): 46.5 nM
- inhibition at 10 µM (OVCAR-3; Homo sapiens, one dose 10 µM): 104%
- Growth % (OVCAR-3; one dose 10 µM): -4.18%
- TGI (HT29; 5-dose, 48 h): >100000 nM
- GI50 (HT29; Homo sapiens, HT-29, 5-dose, 48 h): 134 nM
- inhibition at 10 µM (HT29; Homo sapiens, HT-29, one dose 10 µM): 96.3%
- Growth % (HT29; one dose 10 µM): 3.73%
- TGI (NCI-H226; 5-dose, 48 h): >100000 nM
- GI50 (NCI-H226; Homo sapiens, 5-dose, 48 h): 22200 nM
- inhibition at 10 µM (NCI-H226; Homo sapiens, one dose 10 µM): 41%
- Growth % (NCI-H226; one dose 10 µM): 58.99%
- TGI (SK-MEL-28; 5-dose, 48 h): >100000 nM
- GI50 (SK-MEL-28; Homo sapiens, 5-dose, 48 h): 15800 nM
- inhibition at 10 µM (SK-MEL-28; Homo sapiens, one dose 10 µM): 42.3%
- Growth % (SK-MEL-28; one dose 10 µM): 57.74%
- TGI (TK-10; 5-dose, 48 h): >100000 nM
- GI50 (TK-10; Homo sapiens, 5-dose, 48 h): 38600 nM
- inhibition at 10 µM (TK-10; Homo sapiens, one dose 10 µM): 35.6%
- Growth % (TK-10; one dose 10 µM): 64.4%
- TGI (SW-620; 5-dose, 48 h): >100000 nM
- GI50 (SW-620; Homo sapiens, 5-dose, 48 h): 56.2 nM
- inhibition at 10 µM (SW-620; Homo sapiens, one dose 10 µM): 71.3%
- Growth % (SW-620; one dose 10 µM): 28.73%
- inhibition at 10 µM (ACHN; Homo sapiens): 67.3%
- Growth % (ACHN): 32.67%
- TGI (IGROV1; 5-dose, 48 h): >100000 nM
- GI50 (IGROV1; Homo sapiens, IGROV-1, 5-dose, 48 h): 94.6 nM
- inhibition at 10 µM (IGROV1; Homo sapiens, IGROV-1, one dose 10 µM): 68.1%
- Growth % (IGROV1; one dose 10 µM): 31.88%
- TGI (SF-295; 5-dose, 48 h): >100000 nM
- GI50 (SF-295; Homo sapiens, 5-dose, 48 h): 53.5 nM
- inhibition at 10 µM (SF-295; Homo sapiens, one dose 10 µM): 81.4%
- Growth % (SF-295; one dose 10 µM): 18.61%
- GI50 (MDA-MB-468; Homo sapiens, 5-dose, 48 h): 106 nM
- inhibition at 10 µM (MDA-MB-468; Homo sapiens, one dose 10 µM): 77%
- Growth % (MDA-MB-468; one dose 10 µM): 23%
- GI50 (MDA-MB-435; Homo sapiens, 5-dose, 48 h): 29.1 nM
- inhibition at 10 µM (MDA-MB-435; Homo sapiens, one dose 10 µM): 99.7%
- Growth % (MDA-MB-435; one dose 10 µM): 0.35%
- TGI (MOLT-4; 5-dose, 48 h): 93400 nM
- GI50 (MOLT-4; Homo sapiens, 5-dose, 48 h): 146 nM
- inhibition at 10 µM (MOLT-4; Homo sapiens, one dose 10 µM): 80.3%
- Growth % (MOLT-4; one dose 10 µM): 19.7%
- TGI (SK-OV-3; 5-dose, 48 h): >100000 nM
- GI50 (SK-OV-3; Homo sapiens, 5-dose, 48 h): 3450 nM
- inhibition at 10 µM (SK-OV-3; Homo sapiens, one dose 10 µM): 66.6%
- Growth % (SK-OV-3; one dose 10 µM): 33.36%
- TGI (HOP-62; 5-dose, 48 h): >100000 nM
- GI50 (HOP-62; Homo sapiens, 5-dose, 48 h): 511 nM
- inhibition at 10 µM (HOP-62; Homo sapiens, one dose 10 µM): 68.2%
- Growth % (HOP-62; one dose 10 µM): 31.85%
- TGI (SF-268; 5-dose, 48 h): >100000 nM
- GI50 (SF-268; Homo sapiens, 5-dose, 48 h): 324 nM
- inhibition at 10 µM (SF-268; Homo sapiens, one dose 10 µM): 66.9%
- Growth % (SF-268; one dose 10 µM): 33.13%
- TGI (T-47D; 5-dose, 48 h): >100000 nM
- inhibition at 10 µM (T-47D; Homo sapiens, T47D, one dose 10 µM): 25.1%
- Growth % (T-47D; one dose 10 µM): 74.94%
- TGI (A498; 5-dose, 48 h): 8080 nM
- GI50 (A498; Homo sapiens, 5-dose, 48 h): 847 nM
- inhibition at 10 µM (A498; Homo sapiens, one dose 10 µM): 106%
- Growth % (A498; one dose 10 µM): -5.5%
